# Assay results reported in patent US20260070945A1, “MACROCYCLIC IMMUNOMODULATORS” (Bristol-Myers Squibb Company, priority 2022, published 2026).
# Where a SMILES comes first, the peptide text is derived from it. Bridges are numbered along the chain shown (N, C = ends). [ ]: non-standard residue; d: D form. The star is where a group is joined. ξ: configuration not given here. Phe(3-CF3) = N[C@@H](Cc1cccc(C(F)(F)F)c1)C(=O)O; Phe(4-COOH) = N[C@@H](Cc1ccc(C(=O)O)cc1)C(=O)O; Bip = N[C@@H](Cc1ccc(-c2ccccc2)cc1)C(=O)O; Phe(3-Me) = Cc1cccc(C[C@H](N)C(=O)O)c1; NH(CH2)12COOH = O=C(O)CCCCCCCCCCCCN*; Val(3-OH) = CC(C)(O)[C@H](N)C(=O)O; hArg = N=C(N)NCCCC[C@H](N)C(=O)O; 4Pal = N[C@@H](Cc1ccncc1)C(=O)O; 3Thi = N[C@@H](Cc1ccsc1)C(=O)O; Cha = N[C@@H](CC1CCCCC1)C(=O)O; Cit = NC(=O)NCCC[C@H](N)C(=O)O; Thr(3ξ) = CC(O)[C@H](N)C(=O)O; Carboxymethyl = O=C(O)C*; NMeA = CN[C@@H](C)C(=O)O; Orn = NCCC[C@H](N)C(=O)O; Aun = NCCCCCCCCCCC(=O)O; Dab = NCC[C@H](N)C(=O)O; Dap = NC[C@H](N)C(=O)O; AEEA = NCCOCCOCC(=O)O
# Molecular target: T1, PD-1/PD-L1 interaction (PE-labeled human PD-L1-Ig binding to Jurkat cell line over-expressing human PD-1) (Homo sapiens, UniProt Q15116)
# T1 construct: expressed in transfected cells; host or cells: Jurkat
# Experiment: Jurkat-PD-1 Cell Binding High-Content Screening Assay (CBA)
# Settings: Jurkat-hPD-1 cells, PE-labeled PD-L1-Ig 20 nM final; read-out: Jurkat HPD1 PDL1 IC50
# How it was run: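 Cells 8×10^3/well, DMEM + 10% FCS; cpd 2 h, 37 °C; PE–PD-L1-Ig 20 nM final, 1 h; PFA fix + Hoechst 33342, 3× dPBS wash; high-content imager.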
# T1 sequence (Q15116 25-288): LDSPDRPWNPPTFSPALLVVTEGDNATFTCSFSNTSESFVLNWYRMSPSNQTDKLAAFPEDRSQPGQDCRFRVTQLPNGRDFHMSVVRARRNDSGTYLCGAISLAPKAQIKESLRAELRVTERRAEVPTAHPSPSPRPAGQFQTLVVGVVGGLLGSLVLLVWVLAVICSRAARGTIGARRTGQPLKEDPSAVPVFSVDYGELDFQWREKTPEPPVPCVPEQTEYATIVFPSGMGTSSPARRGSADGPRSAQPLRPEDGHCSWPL
row,IC50,SMILES
1,94.8 nM,CC(C)C[C@@H]1NC(=O)[C@H](Cc2c[nH]c3ccccc23)NC(=O)[C@H](CC(=O)O)NC(=O)[C@H](Cc2ccccc2)NC(=O)[C@H](Cc2ccc(O)cc2)NC(=O)CSC[C@@H](C(=O)N[C@@H](CCCCN)C(=O)NCCOCCOCC(=O)NCCCCCCCCCCC(=O)O)NC(=O)[C@H](CO)NC(=O)[C@H](C(C)C)NC(=O)[C@H](CC2CCCCC2)NC(=O)[C@H](CCN)NC(=O)[C@@H](CC(C)C)NC(=O)[C@H](C)N(C)C(=O)[C@H](C(C)C)NC(=O)[C@H](Cc2ccc(-c3ccccc3)cc2)NC1=O [Example 2097] ({CH2CO}-YFDWL[Bip]V[NMeA][dL][Dab][Cha]VSCK[AEEA][Aun]-OH; thioether N-14)
2,33.3 nM,Cc1cccc(C[C@@H]2NC(=O)[C@H](CC(=O)O)NC(=O)[C@H](Cc3ccc(OCC(=O)O)cc3)NC(=O)[C@H](Cc3ccncc3)NC(=O)CSC[C@@H](C(=O)NCCOCCOCC(=O)NCCCCCCCCCCC(=O)O)NC(=O)[C@H](CCCN)NC(=O)[C@H](C(C)C)NC(=O)[C@H](CC3CCCCC3)NC(=O)[C@H](CCN)NC(=O)[C@@H](CC(C)C)NC(=O)[C@H](C)N(C)C(=O)[C@H](Cc3ccc(O)cc3)NC(=O)[C@H](Cc3ccc(-c4ccccc4)cc3)NC(=O)[C@H](CC(C)C)NC2=O)c1 [Example 2218] ({CH2CO}-[4Pal]Y(Carboxymethyl)D[Phe(3-Me)]L[Bip]Y[NMeA][dL][Dab][Cha]V[Orn]C[AEEA][Aun]-OH; thioether N-14)
3,7.2 nM,Cc1cccc(C[C@@H]2NC(=O)[C@H](CC(=O)O)NC(=O)[C@H](Cc3ccc(C(=O)O)cc3)NC(=O)[C@H](Cc3ccc(OCC(=O)O)cc3)NC(=O)CSC[C@@H](C(=O)N[C@@H](CCN)C(=O)NCCOCCOCC(=O)NCCOCCOCC(=O)NCCCCCCCCCCCCC(=O)O)NC(=O)[C@H](CO)NC(=O)[C@H](C(C)(C)O)NC(=O)[C@H](CC3CCCCC3)NC(=O)[C@H](CCN)NC(=O)[C@@H](CC(C)C)NC(=O)[C@H](C)N(C)C(=O)[C@H](CCC(N)=O)NC(=O)[C@H](Cc3ccc(-c4ccccc4)cc3)NC(=O)[C@H](Cc3ccc(C(=O)O)cc3)NC2=O)c1 [Example 1105] ({CH2CO}-Y(Carboxymethyl)[Phe(4-COOH)]D[Phe(3-Me)][Phe(4-COOH)][Bip]Q[NMeA][dL][Dab][Cha][Val(3-OH)]SC[Dab][AEEA][AEEA]-{NH(CH2)12COOH}; thioether N-14)
4,343 nM,Cc1cccc(C[C@@H]2NC(=O)[C@H](CC(=O)O)NC(=O)[C@H](Cc3ccc(C(=O)O)cc3)NC(=O)[C@H](Cc3ccc(OCC(=O)O)cc3)NC(=O)CSC[C@@H](C(=O)NCCCCCCCCCCC(=O)O)NC(=O)[C@H](C(C)O)NC(=O)[C@H](C(C)C)NC(=O)[C@H](CC3CCCCC3)NC(=O)[C@H](CCN)NC(=O)[C@@H](CC(C)C)NC(=O)[C@H](C)N(C)C(=O)[C@H](Cc3ccc(C(=O)O)cc3)NC(=O)[C@H](Cc3ccc(-c4ccccc4)cc3)NC(=O)[C@H](CC(C)C)NC2=O)c1 (stereo partly drawn) [Example 2332] ({CH2CO}-Y(Carboxymethyl)[Phe(4-COOH)]D[Phe(3-Me)]L[Bip][Phe(4-COOH)][NMeA][dL][Dab][Cha]V[Thr(3ξ)]C[Aun]-OH; thioether N-14)
5,21.1 nM,Cc1cccc(C[C@@H]2NC(=O)[C@H](CC(=O)O)NC(=O)[C@H](Cc3ccc(OCC(=O)O)cc3)NC(=O)[C@H](CCCNC(=N)N)NC(=O)CSC[C@@H](C(=O)N[C@@H](CCN)C(=O)NCCCCCCCCCCC(=O)O)NC(=O)[C@H](C(C)O)NC(=O)[C@H](C(C)C)NC(=O)[C@H](CC3CCCCC3)NC(=O)[C@H](CCN)NC(=O)[C@@H](CC(C)C)NC(=O)[C@H](C)N(C)C(=O)[C@H](Cc3ccc(OCC(=O)O)cc3)NC(=O)[C@H](Cc3ccc(-c4ccccc4)cc3)NC(=O)[C@H](C(C)C)NC2=O)c1 (stereo partly drawn) [Example 2308] ({CH2CO}-RY(Carboxymethyl)D[Phe(3-Me)]V[Bip]Y(Carboxymethyl)[NMeA][dL][Dab][Cha]V[Thr(3ξ)]C[Dab][Aun]-OH; thioether N-14)
6,8.5 nM,CC(C)C[C@@H]1NC(=O)[C@H](Cc2c[nH]c3ccccc23)NC(=O)[C@H](CC(=O)O)NC(=O)[C@H](Cc2ccc(OCC(=O)O)cc2)NC(=O)[C@H](CCCCNC(=N)N)NC(=O)CSC[C@@H](C(=O)NCC(=O)NCCOCCOCC(=O)N[C@@H](CN)C(=O)NCCCCCCCCCCC(=O)O)NC(=O)[C@H](CCCNC(N)=O)NC(=O)[C@H](C(C)C)NC(=O)[C@H](CC2CCCCC2)NC(=O)[C@H](CCN)NC(=O)[C@@H](CC(C)C)NC(=O)[C@H](C)N(C)C(=O)[C@H](C(C)C)NC(=O)[C@H](Cc2ccc(-c3ccccc3)cc2)NC1=O [Example 2178] ({CH2CO}-[hArg]Y(Carboxymethyl)DWL[Bip]V[NMeA][dL][Dab][Cha]V[Cit]CG[AEEA][Dap][Aun]-OH; thioether N-14)
7,15.3 nM,COC[C@@H]1NC(=O)CSC[C@@H](C(=O)N[C@@H](CCN)C(=O)NCCCCCCCCCCCCC(=O)O)NC(=O)[C@H](CC(=O)O)NC(=O)[C@H](C(C)(C)O)NC(=O)[C@H](CC2CCCCC2)NC(=O)[C@H](CCN)NC(=O)[C@@H](CC(C)C)NC(=O)[C@H](C)N(C)C(=O)[C@H](CCC(N)=O)NC(=O)[C@H](Cc2ccc(-c3ccccc3)cc2)NC(=O)[C@H](Cc2ccc(C(=O)O)cc2)NC(=O)[C@H](Cc2cccc(C(F)(F)F)c2)NC(=O)[C@H](CC(=O)O)NC(=O)[C@H](Cc2ccc(OCC(=O)O)cc2)NC1=O [Example 1134] ({CH2CO}-S(Me)Y(Carboxymethyl)D[Phe(3-CF3)][Phe(4-COOH)][Bip]Q[NMeA][dL][Dab][Cha][Val(3-OH)]DC[Dab]-{NH(CH2)12COOH}; thioether N-14)
8,12.1 nM,Cc1cccc(C[C@@H]2NC(=O)[C@H](CC(=O)O)NC(=O)[C@H](Cc3ccc(OCC(=O)O)cc3)NC(=O)[C@H](C(C)O)NC(=O)CSC[C@@H](C(=O)N[C@@H](CCN)C(=O)NCCCCCCCCCCC(=O)O)NC(=O)[C@H](C(C)O)NC(=O)[C@H](C(C)C)NC(=O)[C@H](CC3CCCCC3)NC(=O)[C@H](CCN)NC(=O)[C@@H](CC(C)C)NC(=O)[C@H](C)N(C)C(=O)[C@H](Cc3ccc(OCC(=O)O)cc3)NC(=O)[C@H](Cc3ccc(-c4ccccc4)cc3)NC(=O)[C@H](Cc3ccc(OCC(=O)O)cc3)NC2=O)c1 (stereo partly drawn) [Example 2310] ({CH2CO}-[Thr(3ξ)]Y(Carboxymethyl)D[Phe(3-Me)]Y(Carboxymethyl)[Bip]Y(Carboxymethyl)[NMeA][dL][Dab][Cha]V[Thr(3ξ)]C[Dab][Aun]-OH; thioether N-14)

# Same assay, conditions: PE-labeled PD-L1-Ig 20 nM final, Jurkat-hPD-1 cells; read-out: Jurkat HPD1 PDL1 IC50
row,IC50,SMILES
1,19.5 nM,Cc1cccc(C[C@@H]2NC(=O)[C@H](CC(=O)O)NC(=O)[C@H](Cc3ccc(C(=O)O)cc3)NC(=O)[C@H](Cc3ccsc3)NC(=O)CSC[C@@H](C(=O)N[C@@H](CCN)C(=O)NCCOCCOCC(=O)NCCOCCOCC(=O)NCCCCCCCCCCC(=O)O)NC(=O)[C@H](CCC(=O)O)NC(=O)[C@H](C(C)(C)O)NC(=O)[C@H](CC3CCCCC3)NC(=O)[C@H](CCN)NC(=O)[C@@H](CC(C)C)NC(=O)[C@H](C)N(C)C(=O)[C@H](Cc3ccc(OCC(=O)O)cc3)NC(=O)[C@H](Cc3ccc(-c4ccccc4)cc3)NC(=O)[C@H](Cc3ccc(OCC(=O)O)cc3)NC2=O)c1 [Example 2500] ({CH2CO}-[3Thi][Phe(4-COOH)]D[Phe(3-Me)]Y(Carboxymethyl)[Bip]Y(Carboxymethyl)[NMeA][dL][Dab][Cha][Val(3-OH)]EC[Dab][AEEA][AEEA][Aun]-OH; thioether N-14)
2,22.8 nM,CC(C)C[C@H]1NC(=O)[C@H](C)N(C)C(=O)[C@H](Cc2ccc(C(=O)O)cc2)NC(=O)[C@H](Cc2ccc(-c3ccccc3)cc2)NC(=O)[C@H](Cc2ccc(C(=O)O)cc2)NC(=O)[C@H](Cc2cccc(C(F)(F)F)c2)NC(=O)[C@H](CC(=O)O)NC(=O)[C@H](Cc2ccc(C(=O)O)cc2)NC(=O)[C@H](C(C)O)NC(=O)CSC[C@@H](C(=O)N[C@@H](CCN)C(=O)NCCCCCCCCCCCCC(=O)O)NC(=O)[C@H](CO)NC(=O)[C@H](C(C)(C)O)NC(=O)[C@H](CC2CCCCC2)NC(=O)[C@H](CCN)NC1=O (stereo partly drawn) [Example 2568] ({CH2CO}-[Thr(3ξ)][Phe(4-COOH)]D[Phe(3-CF3)][Phe(4-COOH)][Bip][Phe(4-COOH)][NMeA][dL][Dab][Cha][Val(3-OH)]SC[Dab]-{NH(CH2)12COOH}; thioether N-14)
3,30.7 nM,Cc1cccc(C[C@@H]2NC(=O)[C@H](CC(=O)O)NC(=O)[C@H](Cc3ccc(OCC(=O)O)cc3)NC(=O)[C@H](CN)NC(=O)CSC[C@@H](C(=O)N[C@@H](CCN)C(=O)NCCCCCCCCCCC(=O)O)NC(=O)[C@H](CO)NC(=O)[C@H](Cc3cnc[nH]3)NC(=O)[C@H](CC3CCCCC3)NC(=O)[C@H](CCN)NC(=O)[C@@H](CC(C)C)NC(=O)[C@H](C)N(C)C(=O)[C@H](Cc3ccc(OCC(=O)O)cc3)NC(=O)[C@H](Cc3ccc(-c4ccccc4)cc3)NC(=O)[C@H](Cc3ccc(OCC(=O)O)cc3)NC2=O)c1 [Example 2427] ({CH2CO}-[Dap]Y(Carboxymethyl)D[Phe(3-Me)]Y(Carboxymethyl)[Bip]Y(Carboxymethyl)[NMeA][dL][Dab][Cha]HSC[Dab][Aun]-OH; thioether N-14)
4,1.8 nM,Cc1cccc(C[C@@H]2NC(=O)[C@H](CC(=O)O)NC(=O)[C@H](Cc3ccc(C(=O)O)cc3)NC(=O)[C@H](C(C)O)NC(=O)CSC[C@@H](C(=O)N[C@@H](CCN)C(=O)NCCOCCOCC(=O)NCCOCCOCC(=O)NCCCCCCCCCCC(=O)O)NC(=O)[C@H](CO)NC(=O)[C@H](C(C)(C)O)NC(=O)[C@H](CC3CCCCC3)NC(=O)[C@H](CCN)NC(=O)[C@@H](CC(C)C)NC(=O)[C@H](C)N(C)C(=O)[C@H](Cc3ccc(C(=O)O)cc3)NC(=O)[C@H](Cc3ccc(-c4ccccc4)cc3)NC(=O)[C@H](Cc3ccc(C(=O)O)cc3)NC2=O)c1 (stereo partly drawn) [Example 2527] ({CH2CO}-[Thr(3ξ)][Phe(4-COOH)]D[Phe(3-Me)][Phe(4-COOH)][Bip][Phe(4-COOH)][NMeA][dL][Dab][Cha][Val(3-OH)]SC[Dab][AEEA][AEEA][Aun]-OH; thioether N-14)
